# Assay results taken from PMC11220795 (Molecular Pharmaceutics, 2024).
# Test: Drug solubility in medium-chain triglycerides (MCT, Miglyol 812 N); SORESOS 96-well assay, miniaturized shake-flask or literature
# Details: decadic logarithm of molar solubility in MCTs (Miglyol 812 N), 24 h at room temperature; no literature source given
# Method: The excipient complies with the quality specifications of the European Pharmacopoeia. The solvents used for the ultra-performance liquid chromatography (UPLC) quantification were of UPLC grade.
# (b) employing a miniaturized version of the shake-flask method in 2 mL glass vials,[33] or (c) collecting data from the literature.[12],[34] Each of the employed assays involved residual solid-state screenings by powder X-ray diffraction to identify potential solid-state changes during solubility screenings.
compound,measurement,value
CCC1=C(C)CN(C(=O)NCCc2ccc(S(=O)(=O)NC(=O)N[C@H]3CC[C@H](C)CC3)cc2)C1=O [glimepiride],log10 S [M],-4.38 M
Cc1c(Cl)cccc1Nc1ccccc1C(=O)O [tolfenamic acid],log10 S [M],-1.65 M
COc1ccc(CCN2CCC(Nc3nc4ccccc4n3Cc3ccc(F)cc3)CC2)cc1 [astemizole],log10 S [M],-2.37 M
Cc1cc(-c2cccc(C3=Nc4cc(C)c(C(F)(F)F)cc4NC(=O)C3)c2)ccn1 [RO4432717],log10 S [M],-2.89 M
Cc1ccc(-c2noc(C)c2COc2ccc(C(=O)NC3CCOCC3)nn2)cn1 [RO7017773],log10 S [M],-2.24 M
Cc1cc(-n2c(=O)[nH]c(=O)n(C)c2=O)ccc1Oc1ccc(SC(F)(F)F)cc1 [toltrazuril],log10 S [M],-2.35 M
Cn1cc(-c2ccc(S(=O)(=O)[C@@H]3C[C@@H](C(=O)NC4(C#N)CC4)N(C(=O)C4(C(F)(F)F)CC4)C3)c(C(F)(F)F)c2)cn1 [RO5459072],log10 S [M],-3.13 M
CN1CC(=O)N2[C@H](c3ccc4c(c3)OCO4)c3[nH]c4ccccc4c3C[C@@H]2C1=O [tadalafil],log10 S [M],-2.99 M
CC(C)(C)c1ccc(CN(CCc2cccc(C(F)(F)F)c2)C(=O)c2c(F)c(Cl)cc3cc[nH]c23)cc1 [RO4920902],log10 S [M],-1.55 M
CC(C(=O)O)c1ccc2c(c1)[nH]c1ccc(Cl)cc12 (stereo not drawn) [carprofen],log10 S [M],-1.29 M
CC(C)(C)c1ccc(C(O)CCCN2CCC(C(O)(c3ccccc3)c3ccccc3)CC2)cc1 (stereo not drawn) [terfenadine],log10 S [M],-2.05 M
COc1ccc(N2CCOCC2)c2sc(NC(=O)N3CC[S+]([O-])CC3)nc12 [RO0712616],log10 S [M],-4.84 M
COc1ccc(Cl)cc1S(=O)(=O)N1CCOc2c(C)cc(C(=O)Nc3ccc(CC(=O)O)cc3)cc21 [RO5114497],log10 S [M],-3.73 M
Cc1onc(-c2ccccn2)c1COc1ccc(C(=O)N2CCOCC2)cn1 [RO5234906],log10 S [M],-1.90 M
CN1C(=O)N(c2ccc(C#Cc3ccccc3)cn2)[C@@H]2CCC[C@H]21 [RO6805600],log10 S [M],-1.07 M
CC(C)(C)c1ccc(CN(CCc2cc(F)cc(C(F)(F)F)c2)C(=O)c2cc(C(F)(F)F)cc(Cl)c2F)cc1 [RO5072744],log10 S [M],0.0355 M
CCOC(=O)C1=C(COCCN)NC(C)=C(C(=O)OC)C1c1ccccc1Cl (stereo not drawn) [amlodipine],log10 S [M],-1.45 M
CC(C)(C)NC(=O)[C@@H]1C[C@@H]2CCCC[C@@H]2CN1C[C@@H](O)[C@H](Cc1ccccc1)NC(=O)[C@H](CC(N)=O)NC(=O)c1ccc2ccccc2n1 [saquinavir],log10 S [M],-3.11 M
COc1ccc(N2CCOCC2)c2sc(NC(=O)c3ccc(F)cc3)nc12 [RO0716689],log10 S [M],-2.41 M
CCOC(=O)C1=C(C)NC(C)=C(C(=O)OCC)C1c1ccccc1/C=C/C(=O)OC(C)(C)C [lacidipine],log10 S [M],-2.00 M
COc1ccc(N2CCOCC2)c2sc(NC(=O)N(C)C3CCC(O)CC3)nc12 (stereo not drawn) [RO4403289],log10 S [M],-3.39 M
CC(C)C(=O)Nc1ccc([N+](=O)[O-])c(C(F)(F)F)c1 [flutamide],log10 S [M],-0.97 M
COc1ccc(C)cc1S(=O)(=O)N1CCCc2ccc(C(=O)Nc3ccc(C(=O)O)c(F)c3)cc21 [RO5033672],log10 S [M],-4.19 M
COc1ccc(-c2ccccc2)c2sc(NC(=O)c3ccc(F)cc3)nc12 [RO0691911],log10 S [M],-1.71 M
CC(C)C(=O)c1c(C(C)C)nn2ccccc12 [ibudilast],log10 S [M],0.0143 M
CC[C@@H]([C@H](C)O)n1ncn(-c2ccc(N3CCN(c4ccc(OC[C@@H]5CO[C@@](Cn6cncn6)(c6ccc(F)cc6F)C5)cc4)CC3)cc2)c1=O [posaconazole],log10 S [M],-3.55 M
CNC(=O)c1ccc(N2C(=S)N(c3ccc(C#N)c(C(F)(F)F)c3)C(=O)C2(C)C)cc1F [enzalutamide],log10 S [M],-2.36 M
COc1cc2ncnc(Nc3ccc(F)c(Cl)c3)c2cc1OCCCN1CCOCC1 [gefitinib],log10 S [M],-3.09 M
COc1ccc(N2CCOCC2)c2sc(NC(=O)c3ccnc(CN4CCCC4)c3)nc12 [RO0728617],log10 S [M],-3.00 M
Cc1sc(NC(=O)C2=C(C(=O)O)CCCC2)c(-c2nc(C3CC3)no2)c1C [RO6858805],log10 S [M],-2.99 M
Cc1cc(-c2ccc(C(F)(F)F)cc2)cc(-c2cccc(-c3cccc(S(N)(=O)=O)c3)n2)n1 [RO5132673],log10 S [M],-2.96 M
Cc1onc(-c2ccc(F)cc2)c1COc1ccc(C(=O)N2CCS(=O)(=O)CC2)cn1 [RO5186582],log10 S [M],-2.53 M
O=C(Nc1ccc(Cl)cn1)[C@@H]1CN(CC(F)F)C[C@H]1C(=O)Nc1ccc(-n2ccccc2=O)cc1F [RO4934067],log10 S [M],-2.53 M
O=C(O)c1ccccc1Nc1cccc(C(F)(F)F)c1 [flufenamic acid],log10 S [M],-0.68 M
CN(C(=O)c1ncc(C#Cc2cccc(F)c2)cn1)C(C)(C)C [RO6807794],log10 S [M],-1.40 M
CCO[C@H](Cc1ccc2c(ccn2Cc2nc(-c3ccccc3Cl)oc2C)c1)C(=O)O [RO4552952],log10 S [M],-1.66 M
